# Reference: article PMC13441969, “Zero-shot design of drug-binding proteins via neural iterative selection−expansion” (Nature, 2026)
# “Also recorded” adds a separate entry of the source. Structures can show the parent of a compound that is named as a salt.
# Assays:
# EPIC = assay: Fluorescence anisotropy of fluorescent ligands binding to EPIC; conditions: for Kd / binding of ligand to EPIC (words): [ligand] = 50 nM; for Kd: 1:1 binding model; for binding of ligand to EPIC (words): dexamethasone and apixaban as FITC conjugates
# Procedure: including the ProteinMPNN-designed sequences along with the Ala/Gly versions, are available […]
# Fluorescence Polarization Experiments to Determine Binding Affinities
# We performed fluorescence anisotropy experiments in a 384 -well plate -reader format to determine the binding affinities of protein s with various ligands (Supp. Fig. 15 and Supp. Table 6). We serially diluted an initial solution containing a high concentration of protein while keeping a constant concentration of ligand (50 nM) in each well. The buffer for these assays was composed of 1x PBS, pH 7.4, and 0.1% w/v PEG-8000. Camptothecin-class molecules (exatecan, camptothecin, belotecan, FL118, irinotecan) were excited at a wavelength of 360 nm using a BMG LabTech PHERAstar FSX plate reader or a BMG LabTech CLARIOstar Plus plate reader. We detected the resulting parallel and perpendicularly polarized emission at 440 nm. […]
# excited using 482 nm filter (16 nm bandwidth) using a BMG LabTech CLARIOstar Plus plate reader, and parallel and perpendicularly polarized emissions were detected through a 530 nm filter (40 nm bandwidth). Data was fit using the quadratic form of a single-site binding model.
# Gain settings for each molecule were calculated by auto-adjusting the focus on a well containing free ligand and buffer, setting the millipolarization (mP) of free ligand to mP = 35.
# Fits to Fluorescence Anisotropy Data
# Data from fluorescence anisotropy (r) experiments, which varied total protein concentration, [P]T for a fixed total ligand concentration, [L]T, was fit to a single-site binding […]
# model (Equations 1 and 2, N = 1). […] For
# EPIC and its mutants, confidence intervals of the fit parameters were determined from bootstrapping the residuals of the optimum fit (random residual selection with replacement) to create 1000 synthetic datasets, which were each separately fit to Equations 1 and 2. Parameter means and 95% confidence intervals were determined from the distribution of the parameters computed from the bootstrapped fits.
# We performed separate protein titrations across three fixed exatecan concentration s (25 , 12.5 , and 5 nM) and measured fluorescence anisotropy of exatecan as a function of protein concentration . For each EPIC mutant, the dissociation constant (Kd) and anisotropy baseline (A min) were shared parameters across the three exatecan concentrations. Anisotropy maxima (Amax) and ligand concentration ([L]T) were fit locally. We fit the ligand concentrations locally (to within 15% of the target concentration) to account for experimental discrepancies. Code for performing the fitting is provided in Zenodo16. […]
# [1] = set-up: method as in PMID 11595695; conditions: cited from earlier work
# [2] = Exatecan lactone hydrolysis by time-resolved absorbance; format: physicochemical; conditions: room temperature, pH 7.4; 3 half-lives
# [3] = set-up: method as in PMID 35318309, PMID 31620223; conditions: read-out: cellular half-maximum inhibitory concentration (IC50); cited from earlier work
SMILES,ΔΔG (change in binding free energy) relative to the exatecan–EPIC complex (EPIC),Kd (EPIC),binding of ligand to EPIC (words) (EPIC),other results
CC[C@@]1(O)C(=O)OCc2c1cc1n(c2=O)Cc2cc3cc4c(cc3nc2-1)OCO4 [FL118],2.3 kcal/mol,6 µM,–,–
"COc1ccc(-n2nc(C(N)=O)c3c2C(=O)N(c2ccc(N4CCCCC4=O)cc2)CC3)cc1 [apixaban, Apixaban]",–,–,no appreciable binding; also recorded: does not bind,–
COc1ccc(-n2nc(C(=O)NCCOCCOCCNC(=S)Nc3ccc(-c4c5ccc(=O)cc-5oc5cc(O)ccc45)c(C(=O)O)c3)c3c2C(=O)N(c2ccc(N4CCCCC4=O)cc2)CC3)cc1 [apixaban-peg-FITC],–,–,did not show any experimentally detectable binding,–
"CC[C@@]1(O)C(=O)OCc2c1cc1n(c2=O)Cc2c-1nc1ccccc1c2CCNC(C)C [belotecan, Belotecan hydrochloride]",3.0 kcal/mol,19 µM,–,–
"CC[C@@]1(O)C(=O)OCc2c1cc1n(c2=O)Cc2cc3ccccc3nc2-1 [camptothecin, Camptothecin]",3.9 kcal/mol,90 µM,–,–
C[C@@H]1C[C@H]2[C@@H]3CCC4=CC(=O)C=C[C@]4(C)[C@@]3(F)[C@@H](O)C[C@]2(C)[C@@]1(O)C(=O)CO [dexamethasone],–,–,no binding; also recorded: does not bind,binding of ligand to EPIC (words) (EPIC; listed as Dexamethasone): no appreciable binding
"CC[C@@]1(O)C(=O)OCc2c1cc1n(c2=O)Cc2c-1nc1cc(F)c(C)c3c1c2[C@@H](N)CC3 [exatecan, Exatecan mesylate]",–,0.12 µM,–,half-life of hydrolysis of free drug in plasma ([1]; plasma): around 2 h; steady-state level of lactone form in human plasma ([1]; within 10 h): 15%; time for nearly complete conversion from C to O form [2]: ≤ 6 h; fold tighter binding of EPIC to exatecan than to any other ligand tested (EPIC): at least 50 fold; IC50 [3]: ~0.001 µM
CCc1c2c(nc3ccc(OC(=O)N4CCC(N5CCCCC5)CC4)cc13)-c1cc3c(c(=O)n1C2)COC(=O)[C@]3(O)CC [irinotecan],–,–,not to bind; also recorded: no appreciable binding,binding of ligand to EPIC (words) (EPIC; listed as Irinotecan): negligible binding
